In PubChem BioAssay (NCI):
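GI50 = concentration required for 50% inhibition of growth. At the TGI there is no net growth.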

Legend:
Experiment in all cases: inhibition of tumour cell growth, NCI panel, 384-well format
786-0 renal = tested on: 786-0 renal
A549 NSCLC = tested on: A549 NSCLC
ACHN renal = tested on: ACHN renal
BT-549 breast = tested on: BT-549 breast
CAKI-1 renal = tested on: CAKI-1 renal
CCRF-CEM leukemia = tested on: CCRF-CEM leukemia
COLO 205 colon = tested on: COLO 205 colon
DU-145 prostate = tested on: DU-145 prostate
EKVX NSCLC = tested on: EKVX NSCLC
HCC-2998 colon = tested on: HCC-2998 colon
HCT-116 colon = tested on: HCT-116 colon
HCT-15 colon = tested on: HCT-15 colon
HL-60(TB) leukemia = tested on: HL-60(TB) leukemia
HOP-62 NSCLC = tested on: HOP-62 NSCLC
HOP-92 NSCLC = tested on: HOP-92 NSCLC
HS 578T breast = tested on: HS 578T breast
HT29 colon = tested on: HT29 colon
IGROV1 ovarian = tested on: IGROV1 ovarian
K-562 leukemia = tested on: K-562 leukemia
KM12 colon = tested on: KM12 colon
LOX IMVI melanoma = tested on: LOX IMVI melanoma
M14 melanoma = tested on: M14 melanoma
MALME-3M melanoma = tested on: MALME-3M melanoma
MCF7 breast = tested on: MCF7 breast
MDA-MB-231 breast = tested on: MDA-MB-231 breast
MDA-MB-435 melanoma = tested on: MDA-MB-435 melanoma
MDA-MB-468 breast = tested on: MDA-MB-468 breast
MOLT-4 leukemia = tested on: MOLT-4 leukemia
NCI-H23 lung = tested on: NCI-H23 lung
NCI-H322M lung = tested on: NCI-H322M lung
NCI-H460 NSCLC = tested on: NCI-H460 NSCLC
NCI-H522 lung = tested on: NCI-H522 lung
NCI/ADR-RES ovarian = tested on: NCI/ADR-RES ovarian
OVCAR-3 ovarian = tested on: OVCAR-3 ovarian
OVCAR-4 ovarian = tested on: OVCAR-4 ovarian
OVCAR-8 ovarian = tested on: OVCAR-8 ovarian
PC-3 prostate = tested on: PC-3 prostate
RPMI-8226 leukemia = tested on: RPMI-8226 leukemia
RXF 393 renal = tested on: RXF 393 renal
SF-268 CNS = tested on: SF-268 CNS
SF-295 CNS = tested on: SF-295 CNS
SF-539 CNS = tested on: SF-539 CNS
SK-MEL-28 melanoma = tested on: SK-MEL-28 melanoma
SK-MEL-5 melanoma = tested on: SK-MEL-5 melanoma
SK-OV-3 ovarian = tested on: SK-OV-3 ovarian
SN12C renal = tested on: SN12C renal
SNB-19 CNS = tested on: SNB-19 CNS
SNB-75 CNS = tested on: SNB-75 CNS
SR leukemia = tested on: SR leukemia
SW-620 colon = tested on: SW-620 colon
T-47D breast = tested on: T-47D breast
TK-10 renal = tested on: TK-10 renal
U251 glioblastoma = tested on: U251 glioblastoma
UACC-62 melanoma = tested on: UACC-62 melanoma
UO-31 renal = tested on: UO-31 renal

## O=C(NCc1ccc(S(=O)(=O)c2cc(F)cc(F)c2)cc1)c1ccc2nccn2c1
786-0 renal
  GI50: < 10 nM
  TGI: < 10 nM
A549 NSCLC
  GI50: < 10 nM
  TGI: 20.3 nM
ACHN renal
  GI50: < 10 nM
  TGI: < 10 nM
BT-549 breast
  GI50: < 10 nM
  TGI: < 10 nM
CAKI-1 renal
  GI50: < 10 nM
  TGI: < 10 nM
CCRF-CEM leukemia
  GI50: < 10 nM
  TGI: < 10 nM
COLO 205 colon
  GI50: < 10 nM
  TGI: < 10 nM
DU-145 prostate
  GI50: < 10 nM
  TGI: < 10 nM
EKVX NSCLC
  GI50: < 10 nM
  TGI: 12.4 nM
HCC-2998 colon
  GI50: < 10 nM
  TGI: < 10 nM
HCT-116 colon
  GI50: < 10 nM
  TGI: < 10 nM
HCT-15 colon
  GI50: < 10 nM
  TGI: < 10 nM
HL-60(TB) leukemia
  GI50: < 10 nM
  TGI: < 10 nM
HOP-62 NSCLC
  GI50: < 10 nM
  TGI: < 10 nM
HOP-92 NSCLC
  GI50: 20.4 nM
  TGI: 43.5 nM
HS 578T breast
  GI50: < 10 nM
  TGI: < 10 nM
HT29 colon
  GI50: < 10 nM
  TGI: 10.2 nM
IGROV1 ovarian
  GI50: < 10 nM
  TGI: < 10 nM
K-562 leukemia
  GI50: < 10 nM
  TGI: < 10 nM
KM12 colon
  GI50: < 10 nM
  TGI: < 10 nM
LOX IMVI melanoma
  GI50: < 10 nM
  TGI: 25.7 nM
M14 melanoma
  GI50: < 10 nM
  TGI: < 10 nM
MALME-3M melanoma
  GI50: < 10 nM
  TGI: 27.4 nM
MCF7 breast
  GI50: < 10 nM
  TGI: < 10 nM
MDA-MB-231 breast
  GI50: < 10 nM
  TGI: 18.3 nM
MDA-MB-435 melanoma
  GI50: < 10 nM
  TGI: < 10 nM
MDA-MB-468 breast
  GI50: < 10 nM
  TGI: < 10 nM
MOLT-4 leukemia
  GI50: < 10 nM
  TGI: < 10 nM
NCI-H23 lung
  GI50: < 10 nM
  TGI: < 10 nM
NCI-H322M lung
  GI50: < 10 nM
  TGI: < 10 nM
NCI-H460 NSCLC
  GI50: 11.6 nM
  TGI: 26.3 nM
NCI-H522 lung
  GI50: < 10 nM
  TGI: < 10 nM
NCI/ADR-RES ovarian
  GI50: < 10 nM
  TGI: < 10 nM
OVCAR-3 ovarian
  GI50: < 10 nM
  TGI: < 10 nM
OVCAR-4 ovarian
  GI50: < 10 nM
  TGI: 11.4 nM
OVCAR-8 ovarian
  GI50: < 10 nM
  TGI: < 10 nM
PC-3 prostate
  GI50: < 10 nM
  TGI: < 10 nM
RPMI-8226 leukemia
  GI50: < 10 nM
  TGI: < 10 nM
RXF 393 renal
  GI50: < 10 nM
  TGI: < 10 nM
SF-268 CNS
  GI50: < 10 nM
  TGI: < 10 nM
SF-295 CNS
  GI50: < 10 nM
  TGI: < 10 nM
SF-539 CNS
  GI50: < 10 nM
  TGI: < 10 nM
SK-MEL-28 melanoma
  GI50: < 10 nM
  TGI: < 10 nM
SK-MEL-5 melanoma
  GI50: < 10 nM
  TGI: < 10 nM
SK-OV-3 ovarian
  GI50: < 10 nM
  TGI: < 10 nM
SN12C renal
  GI50: < 10 nM
  TGI: < 10 nM
SNB-19 CNS
  GI50: < 10 nM
  TGI: < 10 nM
SNB-75 CNS
  GI50: < 10 nM
  TGI: < 10 nM
SR leukemia
  GI50: < 10 nM
  TGI: < 10 nM
SW-620 colon
  GI50: < 10 nM
  TGI: < 10 nM
T-47D breast
  GI50: < 10 nM
  TGI: < 10 nM
TK-10 renal
  GI50: < 10 nM
  TGI: < 10 nM
U251 glioblastoma
  GI50: < 10 nM
  TGI: < 10 nM
UACC-62 melanoma
  GI50: < 10 nM
  TGI: < 10 nM
UO-31 renal
  GI50: < 10 nM
  TGI: < 10 nM
